Source: patent publication US9949971B2, “Therapeutic combinations of a BTK inhibitor, a PI3K inhibitor and/or a JAK-2 inhibitor” (Acerta Pharma B.V., priority 2014, dated 2018)

Assays:
[1] = system: signals through the B cell receptor (CD69 on gated CD19+ B cells); experiment: Whole blood inhibition of B cell receptor signals (anti-IgD induced CD69 on CD19+ B cells, flow cytometry); format: cell-based; conditions: whole blood of four healthy donors, 2 h incubation, anti-human IgD 10 μg/mL 18 h
Procedure: Blood from four healthy donors was incubated for 2 hours with the compounds shown over a concentration range, and then stimulated with anti-human IgD [10 μg/mL] for 18 hours. The mean fluorescent intensity (MFI) of CD69 (and CD86, data not shown) on gated CD19+ B cells was measured by flow cytometry.

GPVI = GPVI platelet aggregation (Convulxin-induced); format: cell-based, human; conditions: for inhibition of GPVI platelet aggregation: human platelets, CVX-induced
Procedure: GPVI platelet aggregation was measured for Formula (XVIII) and Formula XX-A (ibrutinib). Blood was obtained from untreated humans, and platelets were purified from […] by centrifugation. Cells were resuspended to a final concentration of 350,000/μL in buffer containing 145 mmol/L NaCl, 10 mmol/L HEPES, 0.5 mmol/L Na2HPO4, 5 mmol/L KCl, 2 mmol/L MgCl2, 1 mmol/L CaCl2, and 0.1% glucose, at pH 7.4. Stock solutions of […] were prepared on the day of experimentation and added to platelet suspensions 5 minutes (37° C., 1200 rpm) before the induction of aggregation. Aggregation was assessed with a Chronolog Lumi-Aggregometer (model 540 VS; Chronolog, Havertown, Pa.) and permitted to proceed for 6 minutes after the addition of agonist. The results are reported as maximum percent change in light transmittance from baseline with platelet buffer used as a reference.
In FIG. 97, the results of CVX-induced (250 ng/mL) human platelet aggregation results before and 15 minutes after administration of the BTK inhibitors to 6 healthy individuals are shown.

B cell lymphoma = experiment: veterinary clinical trial in canine lymphoma; format: in vivo, dog; conditions: companion dogs with B cell lymphoma
NK cells [2] = experiment: NK cell degranulation/ADCC whole blood assay with obinutuzumab; format: cell-based, human; conditions: whole blood pretreated 1 hour, MEC-1 cells opsonised with obinutuzumab 1 μg/mL, 4 hours, n=3
Procedure: Degranulation in whole blood was performed as follows. […] Exponentially growing cells were used. On the day of the experiment, 8 mL of blood was drawn from a normal volunteer into a test tube containing desirudin to obtain a final concentration of 50 μg/mL. A white blood cell (WBC) count of whole blood was performed. […] 170 μL aliquots of unmanipulated whole blood were incubated with 10 μL BTK inhibitors or X-VIVO 15 medium for one hour into a plate. […] The samples were placed in a 5% CO2 incubator for 4 hours at 37° C.
After 4 hours, the samples were mixed gently and 50 μL aliquots were removed from each well and placed in fluorescence-activated cell sorting (FACS) test tubes. A 20 μL aliquot of anti-CD56-APC antibody and anti-CD107a-PE antibody was added. The samples were incubated for 20 minutes at room temperature in the dark. An aliquot of 2 mL of FACS lysing solution (BD Biosceinces) was added. The samples were again incubated for 5 minutes, and then centrifuged at 2000 rpm for 5 minutes. Supernatant was discarded and the cell pellet was resuspended in 500 μL of PBS. The samples were analyzed on the flow cytometer for CD107a^+ NK cells (CD56^+).

NK cells [3] = experiment: rituximab ADCC mediated by NK cells; format: cell-based
Description: H. E. Kohrt, et al., Blood 2014, 123, 1957-60.

BCR = experiment: in vivo potency: BCR activation markers CD69 and CD86 after IgM stimulation; set-up: species or system mouse; conditions: mice gavaged, 3 hours post-dose, BCR stimulated with IgM, flow cytometry
Procedure: Mice were gavaged at increasing drug concentration and sacrificed at one time point (3 hours post-dose). BCR is stimulated with IgM and the expression of activation markers CD69 and CD86 are monitored by flow cytometry to determine EC50values.
CD86 and CD69 are cell surface proteins that are BCR activation markers. […] BCR was stimulated with IgM and the expression of activation marker CD69 and CD86 are monitored by flow cytometry and to determine EC50 values.

CYP3A4 = CYP3A4 (Homo sapiens, UniProt P08684); experiment: In vitro loss of parent drug as catalyzed by CYPs; nonclinical CYP interaction studies; format: in vitro ADME
[4] = system: mouse, rat, dog, rabbit, monkey, and human hepatocytes; experiment: In vitro metabolism studies in hepatocytes with 14C-labeled compound; format: in vitro ADME
[5] = Glutathione binding and depletion in vitro; format: in vitro ADME
[6] = system: NK cells and monocytic MDSC subsets; experiment: Flow cytometry of peripheral blood cell subsets in CLL patients, predose vs 28 days; format: in vivo, human; conditions: patients with falling ALC counts; after 28 days of dosing
Procedure: PBMCs were stained with monoclonal antibodies conjugated to fluorescent tags (flourochromes) to identify cell subsets via flow cytometry. Non-viable cells were excluded from the analysis using the dye 7-aminoactinomycin D (7-AAD). To produce the metric of percent change, the following steps were taken. First, each cell subset was defined by hierarchical flow cytometry gating. Then, the change in frequency (between day 1 and day 28) was calculated for each cell subset. MDSC subsets were measured as a % of all myeloid cells. T cell subsets were measured as a % of all CD3^+ cells, and NK cells were measured as a % of all live CD45^+ cells. […] A cycle is 28 days. A trend is observed wherein patients with decreasing ALC % had increasing MDSC (monocytic) %. This may include patients who had quickly resolving lymphocytosis and those with no initial lymphocytosis. […] This may include patients who had quickly resolving lymphocytosis and those having no initial lymphocytosis. The effects in FIG. 107 to FIG. 110 are observed in multiple cohorts, at doses including 100 mg BID, 200 mg QD, and 400 mg QD. In FIG. 111 and FIG. 112, the effects on NK cells and MDSC cells are compared to a number of other markers versus % change in ALC at C1D28 and C2D28. These other markers include CD4+ T cells, CD8+ T cells, CD4+/CD8+ T cell ratio, NK-T cells, PD-1+ CD4+ T cells, and PD-1+ CD8+ T cells. […]

BTK = biological target: T1, BTK (Mus musculus, UniProt P35991); experiment: Molecular probe assay of irreversible BTK occupancy in MDSCs from tumor bearing PDA mice; format: in vivo; conditions: 15 mg/kg BID, Day 8, 4 hours post dose (N=5)
T1 construct: MDSCs were purified from tumor bearing PDA mice; endogenous in cells; host or cells: granulocytic and monocytic MDSCs from tumor bearing PDA mice
Description: A molecular probe assay was used to calculate the percent irreversible occupancy of total BTK.

EGFR = EGFR (Homo sapiens, UniProt P00533); experiment: in vitro EGFR phosphorylation in A431 cells; conditions: 10 μM, A431 human epidermoid cancer cell line
[7] = study of respiratory function (GLP safety pharmacology); conditions: rats, doses through 300 mg/kg (the highest dose level)
[8] = functional observation battery (GLP safety pharmacology); conditions: rats, doses through 300 mg/kg (the highest dose level)
[9] = system: human platelet-mediated thrombosis; experiment: in vivo human thrombus formation in the VWF HA1 mice model (laser injury); conditions: human platelets preincubated with BTK inhibitor, laser-induced injury
Procedure: Purified human platelets were preincubated with various concentrations of the BTK inhibitors (0.1 μM, 0.5 μM, or 1 μM) or DMSO and then administered to VWF HA1 mice, followed by laser-induced thrombus formation.
The objective of this study was to evaluate in vivo thrombus formation in the presence of BTK inhibitors.

previously treated CLL = conditions: Phase 1, monotherapy; cited from earlier work
[10] = in vivo; cited from earlier work

Chain of CYP3A4 (P08684 whole entry): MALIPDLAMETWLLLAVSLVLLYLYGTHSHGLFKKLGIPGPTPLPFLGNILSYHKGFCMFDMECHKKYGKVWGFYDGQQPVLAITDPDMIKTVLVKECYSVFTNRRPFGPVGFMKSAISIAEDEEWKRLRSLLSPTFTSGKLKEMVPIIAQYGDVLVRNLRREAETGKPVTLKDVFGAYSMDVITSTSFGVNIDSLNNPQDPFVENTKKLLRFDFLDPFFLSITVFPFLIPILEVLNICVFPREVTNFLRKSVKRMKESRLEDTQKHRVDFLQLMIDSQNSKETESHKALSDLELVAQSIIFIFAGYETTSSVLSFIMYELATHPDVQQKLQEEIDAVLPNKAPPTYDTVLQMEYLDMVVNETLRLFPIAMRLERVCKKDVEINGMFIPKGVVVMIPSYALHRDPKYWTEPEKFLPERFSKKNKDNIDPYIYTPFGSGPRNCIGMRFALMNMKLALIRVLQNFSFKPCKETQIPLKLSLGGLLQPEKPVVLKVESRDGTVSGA
T1 sequence (P35991 whole entry): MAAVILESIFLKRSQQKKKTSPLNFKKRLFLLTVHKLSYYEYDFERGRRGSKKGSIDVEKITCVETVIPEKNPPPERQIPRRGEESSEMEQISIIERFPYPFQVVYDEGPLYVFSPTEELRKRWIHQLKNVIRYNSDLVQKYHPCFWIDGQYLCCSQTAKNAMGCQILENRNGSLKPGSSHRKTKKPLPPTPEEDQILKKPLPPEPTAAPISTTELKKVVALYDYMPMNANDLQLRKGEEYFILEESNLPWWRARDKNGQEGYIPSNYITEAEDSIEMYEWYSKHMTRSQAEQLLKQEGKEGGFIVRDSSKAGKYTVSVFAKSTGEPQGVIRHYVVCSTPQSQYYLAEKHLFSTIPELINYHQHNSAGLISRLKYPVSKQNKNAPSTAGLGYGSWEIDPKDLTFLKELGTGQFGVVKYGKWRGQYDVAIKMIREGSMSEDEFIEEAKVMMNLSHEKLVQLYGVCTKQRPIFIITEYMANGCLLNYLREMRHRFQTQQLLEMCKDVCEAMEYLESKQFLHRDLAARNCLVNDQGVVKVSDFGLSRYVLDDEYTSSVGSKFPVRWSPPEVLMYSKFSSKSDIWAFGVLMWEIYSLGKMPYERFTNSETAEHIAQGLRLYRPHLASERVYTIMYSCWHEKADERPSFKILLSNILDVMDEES
Chain of EGFR (P00533 25-1210): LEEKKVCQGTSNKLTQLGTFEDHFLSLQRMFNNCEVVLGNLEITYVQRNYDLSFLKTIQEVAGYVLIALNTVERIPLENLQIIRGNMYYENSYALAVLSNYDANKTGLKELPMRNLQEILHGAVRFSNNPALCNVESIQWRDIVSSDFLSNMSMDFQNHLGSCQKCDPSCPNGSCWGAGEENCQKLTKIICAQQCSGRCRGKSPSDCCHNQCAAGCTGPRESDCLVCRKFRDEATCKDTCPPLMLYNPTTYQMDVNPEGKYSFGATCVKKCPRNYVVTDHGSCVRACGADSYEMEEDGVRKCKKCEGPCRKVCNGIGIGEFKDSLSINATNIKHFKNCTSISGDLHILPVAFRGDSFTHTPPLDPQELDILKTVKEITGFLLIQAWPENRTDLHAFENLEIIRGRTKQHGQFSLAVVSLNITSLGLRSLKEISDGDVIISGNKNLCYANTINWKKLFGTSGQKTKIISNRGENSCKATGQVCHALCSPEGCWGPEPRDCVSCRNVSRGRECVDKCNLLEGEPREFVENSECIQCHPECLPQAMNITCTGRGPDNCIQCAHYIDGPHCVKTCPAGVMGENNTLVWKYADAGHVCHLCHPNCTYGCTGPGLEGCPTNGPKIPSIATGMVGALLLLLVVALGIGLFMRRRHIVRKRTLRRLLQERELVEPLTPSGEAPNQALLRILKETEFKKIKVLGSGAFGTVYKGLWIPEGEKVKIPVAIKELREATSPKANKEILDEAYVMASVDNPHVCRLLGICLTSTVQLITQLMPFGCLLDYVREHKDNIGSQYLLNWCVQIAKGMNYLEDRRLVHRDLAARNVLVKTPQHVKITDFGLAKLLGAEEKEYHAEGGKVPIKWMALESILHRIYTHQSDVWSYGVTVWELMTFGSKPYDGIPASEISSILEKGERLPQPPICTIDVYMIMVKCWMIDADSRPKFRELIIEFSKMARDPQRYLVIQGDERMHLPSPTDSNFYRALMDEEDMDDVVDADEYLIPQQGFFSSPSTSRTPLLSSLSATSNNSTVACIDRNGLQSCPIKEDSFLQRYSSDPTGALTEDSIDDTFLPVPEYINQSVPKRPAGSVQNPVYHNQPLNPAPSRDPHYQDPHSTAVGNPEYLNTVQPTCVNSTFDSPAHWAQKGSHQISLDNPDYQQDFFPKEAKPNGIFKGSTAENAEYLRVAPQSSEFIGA

Molecule `C=CC(=O)Nc1cccc(Nc2nc(Nc3ccc(OCCOC)cc3)ncc2F)c1` [CC-292] has an EC50 [1] of 121 nM.
For `CC#CC(=O)N1CCC[C@H]1c1nc(-c2ccc(C(=O)Nc3ccccn3)cc2)c2c(N)nccn12` [Formula (XVIII), (S)-4-(8-amino-3-(1-(but-2-ynoyl)pyrrolidin-2-yl)imidazo[1,5-a]pyrazin-1-yl)-N-(pyridin-2-yl)benzamide], the IC50 (GPVI; Platelet, purified human platelets, Convulxin (CVX)) was 1150 nM, the “inhibition of GPVI platelet aggregation” value (GPVI) was “does not” and the “complete responses (CR)” value (B cell lymphoma) was “not observed”. The “effect on percentage of CD56+/CD107a+ NK cells (obinutuzumab-stimulated NK cell degranulation)” value (NK cells [2]) was “minimal effect”, the “antagonism of rituximab ADCC effects mediated by NK cells” value (NK cells [3]) was “does not antagonize rituximab ADCC effects” and the “in vivo potency at inhibiting expression of activation markers CD69 and CD86, versus ibrutinib” value (BCR) was “more potent”. The “Metabolism by CYPs (loss of parent drug)” value (CYP3A4; in vitro) was “metabolized by CYP3A4”, the “Potential for clinical drug-drug interactions through CYP substrates” value (CYP3A4; nonclinical CYP interaction studies) was “very unlikely to cause clinical drug-drug interactions” and the “Metabolites formed in hepatocytes” value ([4]; 14C-labeled compound, mouse, rat, dog, rabbit, monkey, human hepatocytes) was “two mono-oxidized metabolites and a glutathione conjugate”. For the same molecule, the Unique human metabolite ([4]; hepatocytes) was “No unique human metabolite was identified”, the “Glutathione binding / depletion” value [5] was “binds to glutathione but does not deplete glutathione” and the “NK cells and monocytic MDSC subsets in peripheral blood” value [6] was “increase in frequency”. For the same molecule, the “Irreversible occupancy of total BTK in granulocytic and monocytic MDSCs” value (BTK) was “Complete BTK occupancy”, the “inhibition of in vitro EGFR phosphorylation” value (EGFR) was “no inhibition” and the respiratory function [7] was “no treatment-related adverse effects”. For the same molecule, the “neurobehavioral effects or body temperature” value [8] was “no adverse effects”.
For `C=CC(=O)Nc1cccc(Nc2nc(Nc3ccc(OCCOC)cc3)ncc2F)c1` [Formula (XXVII), N-(3-((5-fluoro-2-((4-(2-methoxyethoxy)phenyl)amino)pyrimidin-4-yl)amino)phenyl)acrylamide], the “effect on human platelet-mediated thrombus formation” value [9] was “effect similar to Formula XX-A (ibrutinib)”.
For `C=CC(=O)N1CCC[C@@H](n2nc(-c3ccc(Oc4ccccc4)cc3)c3c(N)ncnc32)C1` [ibrutinib, 1-[(3R)-3-[4-amino-3-(4-phenoxyphenyl)-1H-pyrazolo[3,4-d]pyrimidin-1-yl]piperidin-1-yl]prop-2-en-1-one], the “inhibition of GPVI platelet aggregation” value (GPVI) was “significantly inhibits GPVI platelet aggregation” and the “antagonism of rituximab ADCC effects mediated by NK cells” value (NK cells [3]) was “undesirably antagonizes rituximab ADCC effects”.
For “obinutuzumab: type II glycoengineered CD20 monoclonal antibody”, the “MRD-negative complete response, number” value (previously treated CLL) is listed as 1, the Response rate (previously treated CLL) is listed as 62% and the “Grade 3 IRRs” value [10] is listed as 15%. The “Grade 3 reactions among hypotension cases” value [10] was 25%, the “Grade 4 IRRs” value [10] was “no Grade 4” and the “IRR cases developing symptoms of hypotension” value [10] was 60%. For the same molecule, the “Patients developing IRR” value [10] was 95%, the “Patients experiencing IRRs” value [10] was “all patients” and the “Patients experiencing all grade AE” value [10] was 100%.
